From patent US20220264876A1, “COMPOSITIONS AND METHODS FOR ENHANCING PLANT GROWTH” (BOYCE THOMPSON INSTITUTE FOR PLANT RESEARCH, INC., priority 2019, published 2022)

How the values were obtained:
Type in all cases: in vivo
[1] = system: wheat seeds; test: Wheat seed pretreatment with ascr #18: germination/emergence and growth in soil; details: wheat seeds pretreated 24 hours with 10, 100, 1000 nM vs mock; 10 days after planting (FIG. 9B)
Procedure: FIGS. 9A-9B show the effect of ascr #18 on wheat seed germination/emergence and growth. Wheat seeds were pretreated 24 hours without (mock) or with different concentrations (10, 100 and 1000 nM) of ascr #18 before planting in soil. Seed germination/emergence from soil was measured after 2, 3, 4, 5, 6, 7, 8, 9 and 10 days after planting (FIG. 9A). The height of the second node of the plants was measured […] after planting (FIG. 9B). Data are averages±s.d. (n≥12). *P≤0.05; two-tailed t-test. The effect of ascr #18 on wheat seed germination/emergence and growth was also studied. Wheat seeds were pretreated 24 hours without (mock) or with different concentrations (10, 100 and 1000 nM) of ascr #18 before planting in soil. Seed germination/emergence from soil was measured after 2, 3, 4, 5, 6, 7, 8, 9 and 10 days after planting (FIG. 9A). The height of the second node of the plants was also measured 10 days after planting.

[2] = system: potato plants; test: Spray treatment of four-week old potato plants with ascr #18: growth and tuber yield
Procedure: FIGS. 6A-6B show the effects of ascr #18 on potato plants. Four-week old potato plants were pretreated without (mock) or with ascr #18 (10 nM). Potato tubers were harvested from mock and pre-treated plants. FIG. 6A provides images of tubers from one representative plant that was mock treated and one representative plant that was treated with ascr #18. FIG. 6B provides a graph of the biomass of the above-ground (excluding root) part of the potato plants. FIGS. 7A-7E show the effect of ascr #18 on potato plant growth and yield. Four-week old potato plants were sprayed once with buffer only (mock) or 10 nM ascr #18 before harvesting two weeks later. […] Potato root system (7C) and tubers (7D) harvest from treated and mock plants are presented. Each pile of tubers was from one plant. FIG. 7E presents the tuber biomass of the mock and treated plants at harvest. The effects of ascr #18 on potato were also studied. Four week old potato plants were pretreated (sprat treatment) without (mock) or with ascr #18 (10 nM). Potato tubers were harvested from mock and pre-treated plants. Each pile of tubers in FIG. 6A were from one plant. […] The above-ground (excluding root) part of the potato plants was also measured.

[3] = system: corn seeds; test: Corn seed pretreatment with ascr #18: germination/emergence and growth in soil
Procedure: FIGS. 8A-8B show the effect of ascr #18 on corn seed germination/emergence and growth. Corn seeds were pretreated 24 hours without (mock) or with different concentrations (10, 100 and 1000 nM) of ascr #18 before planting in soil. Seed germination/emergence from soil was measured after 4, 5, 6, 7, 8, 9, 10 and 11 days after planting (FIG. 8A). The height of the second node of the plants was measured 15 days after planting (FIG. 8B). Data are averages±s.d. (n≥12). *P≤0.05; two-tailed t-test. The effect of ascr #18 on corn seed germination/emergence and growth was also studied. Corn seeds were pretreated 24 hours without (mock) or with different concentrations (10, 100 and 1000 nM) of ascr #18 before planting in soil. Seed germination/emergence from soil was measured after 4, 5, 6, 7, 8, 9, 10 and 11 days after planting. […] The height of the second node of the plants was also measured 15 days after planting.

[4] = system: tomato seeds; test: Tomato seed pretreatment with ascr #18: germination/emergence and growth in soil
Procedure: Tomato seeds were pretreated 24 hours without (mock) or with different concentrations (1, 10, 100, 1000 and 10000 nM) of ascr #18 before planting on soil. The length of the plants was measured 12 days after planting. **P≤0.002; ****P≤0.00005; two-tailed t-test. FIGS. 4A-4F show the effect of ascr #18 on tomato seed germination/emergence and growth. Tomato seeds were pretreated 24 hours without (mock) or with different concentrations (10, 100, and 1000 nM) of ascr #18 before planting in soil. Seed germination/emergence from soil was measured after 4, 5, 6 and 7 days after planting (FIG. 4A). The length of plants was measured 12 and 14 days after planting (FIG. 4B). Pictures were taken 14 days after planting (FIG. 4C). **P≤0.002; ****P≤0.00005; two-tailed t-test. FIGS. 4D and 4E provide graphs of the fresh weight of above-ground (excluding root) part of the plants measured at day 21 after planting in soil for tomato seeds pretreated without (mock) or with different concentrations (0.1 and 10 μM) of ascr #18 for 24 hours (FIG. 4D) or 72 hours (FIG. 4E) before planting in soil. The length of the roots of the plants was also measured 21 days after planting (FIG. 4F). The effect of ascr #18 on was also determined on tomato plant growth. Tomato seeds were pretreated 24 hours without (mock) or with different concentrations (1, 10, 100, 1000 and 10000 nM) of ascr #18 before planting on soil. The length of the plants was measured 12 days after planting. […] Further studies on the effect of ascr #18 on tomato seed germination/emergence and growth. Tomato seeds were pretreated 24 hours without (mock) or with different concentrations (10, 100, and 1000 nM) of ascr #18 before planting in soil. Seed germination/emergence from soil was measured after 4, 5, 6 and 7 days after planting. […] The length of the plants was also measured 12 and 14 days after planting and pictures were taken 14 days after planting. […] In further experiments, tomato seeds were pretreated 24 or 72 hours without (mock) or with different concentrations (0.1 and 10 μM) of ascr #18 before planting in soil. More specifically, the tomato seeds were submerged in aqueous solutions of ascaroside for 24 hours or 72 hours directly before planting. Alternatively, seeds, (e.g., tomato seeds) can be coated with a solution of different concentrations of ascaroside containing polymeric binders commonly used for seed coating. Following treatment, the seeds can be dried and stored (e.g., for 2 weeks) before planting. The fresh weight of above-ground (excluding root) part of the plants was measured 21 days after planting. […] The length of the roots of the plants was also measured 21 days after planting.

[5] = system: rice seeds; test: Rice seed pretreatment with ascr #18: germination/emergence and growth in soil
Procedure: FIGS. 1A-1D show the effect of ascr #18 on rice seed germination/emergence and growth. Rice seeds were pretreated 24 hours without (mock) or with different concentrations (10, 100 and 1000 nM) of ascr #18 before planting in soil. Seed germination/emergence from soil was measured after 7, 8, 9, 10 and 11 days after planting (FIG. 1A). The length of the plants was measured 15 days after planting (FIG. 1B) and 18 days after planting (FIG. 1C). Pictures were taken 15 days after planting (FIG. 1D). Data are averages±s.d. (n≥12). ***P≤0.0005; ****P≤0.00005; two-tailed t-test.
FIGS. 2A-2C show the effect of ascr #18 on rice seed germination/emergence and growth. Rice seeds were pretreated 24 hours without (mock) or with different concentrations (10, 100 and 1000 nM) of ascr #18 before planting in soil. Seed germination/emergence from soil was measured after 6, 7, 8, 9 and 10 days after planting (FIG. 2A). The length of the plants was measured 10, 12, 14, 15 and 18 days after planting (FIG. 2B). The fresh biomass of the plants was measured 18 days after planting (FIG. 2C). Data are averages±s.d. (n≥14). *P≤0.05; **P≤0.005; ***P≤0.0005; ****P≤0.00005; two-tailed t-test.
The effect of ascr #18 on rice seed germination/emergence and growth was tested. Briefly, rice seeds were pretreated 24 hours without (mock) or with different concentrations (10, 100 and 1000 nM) of ascr #18 before planting in soil. Seed germination/emergence from soil was measured after 7, 8, 9, 10 and 11 days after planting. […] The length of plants was also measured 15 days and 18 days after planting and pictures were taken at 15 days after planting.
Further studies of the effect of ascr #18 on rice seed germination/emergence and growth were performed. Rice seeds were pretreated 24 hours without (mock) or with different concentrations (10, 100 and 1000 nM) of ascr #18 before planting in soil. Seed germination/emergence from soil was measured after 6, 7, 8, 9 and 10 days after planting. […] The length of plants was also measured at 10, 12, 14, 15 and 18 days after planting. […] The fresh biomass of plants was also measured 18 days after planting.

[6] = system: Arabidopsis seeds; test: Arabidopsis seed pretreatment with ascr #18: germination, growth and flowering
Procedure: Arabidopsis seeds were pretreated 24 hours without (mock) or with 1 μM ascr #18 before planting in soil. FIG. 5A provides a graph of the number of plants at different stages of germination counted 3 days after planting. Stages of germination; 0=no germination; 1=about to germinate; 2=germinated and two-leaf stage; 3=germinated and have expanded leaves (n=60). FIG. 5B provides graphs of the surface area of germinated plants measured by taking pictures and counting pixels using Fiji software and then normalizing by the total area for each plant (n=15 pots with each pot containing 4 plants). FIG. 5C provides a graph of the percent of plants flowering at day 25 after planting in soil. FIG. 5D provides a graph of the fresh weight of above-ground (excluding root) part of the plants measured at day 25 after planting in soil. *P=0.03; **P≤0.01; ***P≤0.001; ****P≤0.0001; two-tailed t-test. The effects of ascr #18 on Arabidopsis were also studied. Arabidopsis seeds were pretreated 24 hours without (mock) or with 1 μM ascr #18 for ascr #18 before planting in soil. The number of plants at different stages of germination were counted 3 days after planting. […] Additionally, the surface area of germinated plants was measured by taking pictures and counting pixels using Fiji software. The data was then normalized by the total area for each plant. […] The percentage of plants flowering at day 25 after planting in soil was also determined. […] The fresh weight of above-ground (excluding root) part of the plants was also measured 25 days after planting.

In the case of `CC1O[C@@H](O[C@@H](C)CCCCCCCCC(=O)O)C(O)C[C@H]1O` (stereo in doubt) [ascr #18, (10R)-(3′R,5′R-dihydroxy-6′S-methyl-(2H)-tetrahydropyran-2-yloxy)-undecanoic Acid], the “Height of the second node of the plants” value [1] is reported as “taller”, the “Biomass of the potato plants (above-ground part, tubers)” value ([2]; four-week old potato plants sprayed once with 10 nM vs mock, harvest two weeks later (FIG. 6B, FIGS. 7A-7E)) is reported as “greater biomass” and the Potato tubers harvested ([2]; four-week old potato plants sprayed with 10 nM vs mock (FIG. 6A)) is reported as “significantly more potato tubers”. For the same compound, the “Seed germination/emergence from soil” value ([3]; corn seeds pretreated 24 hours with 10, 100, 1000 nM vs mock, 4-11 days after planting (FIG. 8A)) was “faster germination/emergence rate”, the “Height of the second node of the plants” value ([3]; corn, 10, 100, 1000 nM vs mock, 15 days after planting (FIG. 8B)) was “taller” and the “Fresh weight of above-ground (excluding root) part of the plants” value ([4]; tomato seeds pretreated 24 or 72 hours with 0.1 and 10 μM vs mock, 21 days after planting (FIGS. 4D-4E), particularly with longer pretreatment) was “greater weight”. For the same compound, the “Seed germination/emergence from soil” value ([4]; tomato seeds pretreated 24 hours with 10, 100, 1000 nM vs mock, 4-7 days after planting (FIG. 4A)) was “faster germination/emergence rate”, the “Length of the roots of the plants” value ([4]; tomato, 0.1 and 10 μM vs mock, 21 days after planting (FIG. 4F)) was “longer roots” and the “Length of the plants” value ([4]; tomato, 10, 100, 1000 nM for 24 hours, 12 and 14 days after planting (FIGS. 4B-4C)) was “taller”. For the same compound, the “Length of the plants” value ([4]; tomato, seed treatment 100 nM or 1000 nM vs untreated or 10 nM, 12 days after planting (FIG. 3)) was “taller”, the “Seed germination/emergence from soil” value ([5]; rice seeds pretreated 24 hours with 10, 100, 1000 nM vs mock, 7-11 days after planting (FIG. 1A)) was “faster germination/emergence rate” and the “Seed germination/emergence from soil” value ([5]; rice, further study, 10, 100, 1000 nM for 24 hours vs mock, 6-10 days after planting (FIG. 2A)) was “faster germination/emergence rate”. For the same compound, the Length of plants ([5]; rice, further study, 10, 100, 1000 nM, 10, 12, 14, 15 and 18 days after planting (FIG. 2B)) was “faster growth”, the “Fresh biomass of plants” value ([5]; rice, further study, 10, 100, 1000 nM, 18 days after planting (FIG. 2C)) was “greater biomass” and the Length of plants ([5]; rice, seed treatment 100 nM or 1000 nM vs untreated or 10 nM, 15 and 18 days after planting (FIGS. 1B-1D)) was “taller”. The “Number of plants at different stages of germination” value ([6]; Arabidopsis seeds pretreated 24 hours with 1 μM vs mock, 3 days after planting (FIG. 5A)) was “faster germination/emergence rate”, the “Fresh weight of above-ground (excluding root) part of the plants” value ([6]; Arabidopsis, 1 μM vs mock, 25 days after planting (FIG. 5D)) was “greater weight” and the “Percentage of plants flowering” value ([6]; Arabidopsis, 1 μM vs mock, day 25 after planting in soil (FIG. 5C)) was “greater plant flowering”. For the same compound, the “Surface area of germinated plants” value ([6]; Arabidopsis, 1 μM vs mock, pixel counting with Fiji software, normalized (FIG. 5B)) was “greater plant surface area”.
